Experimental data: ChEMBL document CHEMBL4311982, “Discovery of novel, potent, isosteviol-based antithrombotic agents” (Eur J Med Chem, 2019)

Legend:
[1] = molecular target: Coagulation factor X (Homo sapiens, UniProt P00742); experiment: Inhibition of human activated Factor X using S-2765 as substrate incubated for 15 mins followed by substrate addition and measured after 1 hr by chromogenic assay
[2] = organism: Rattus norvegicus; also: test concentration or dose not given here
[3] = Clearance in Wistar rat at 6.6 umol/kg, iv measured upto 24 hrs by LC-MS/MS analysis; type: ADME, organism-based; conditions: in vivo
[4] = MRT in Wistar rat at 22 umol/kg, po measured upto 24 hrs by LC-MS/MS analysis; type: ADME, organism-based; conditions: in vivo
[5] = AUC (0 to infinity) in Wistar rat at 22 umol/kg, po measured upto 24 hrs by LC-MS/MS analysis; type: ADME, organism-based; set-up: dose 22 umol/kg, time infinity, route oral; conditions: in vivo
[6] = Oral bioavailability in Wistar rat at 22 umol/kg measured upto 24 hrs by LC-MS/MS analysis; type: ADME, organism-based; conditions: in vivo
[7] = Volume of distribution in Wistar rat at 22 umol/kg, po measured upto 24 hrs by LC-MS/MS analysis; type: ADME, organism-based; conditions: in vivo
[8] = Half life in Wistar rat at 6.6 umol/kg, iv measured upto 24 hrs by LC-MS/MS analysis; type: ADME, organism-based; conditions: in vivo
[9] = organism: Rattus norvegicus; remark: listed apart in the source; also: test concentration or dose not given here
[10] = AUC (0 to infinity) in Wistar rat at 6.6 umol/kg, iv measured upto 24 hrs by LC-MS/MS analysis; type: ADME, organism-based; set-up: dose 6.6 umol/kg, time infinity, route intravenous; conditions: in vivo
[11] = Cmax in Wistar rat at 22 umol/kg, po measured upto 24 hrs by LC-MS/MS analysis; type: ADME, organism-based; set-up: dose 22 umol/kg, route oral; conditions: in vivo
[12] = Clearance in Wistar rat at 22 umol/kg, po measured upto 24 hrs by LC-MS/MS analysis; type: ADME, organism-based; conditions: in vivo
[13] = Half life in Wistar rat at 22 umol/kg, po measured upto 24 hrs by LC-MS/MS analysis; type: ADME, organism-based; conditions: in vivo
[14] = organism: Rattus norvegicus; remark: listed apart in the source; also: test concentration or dose not given here
[15] = Volume of distribution in Wistar rat at 6.6 umol/kg, iv measured upto 24 hrs by LC-MS/MS analysis; type: ADME, organism-based; conditions: in vivo
[16] = MRT in Wistar rat at 6.6 umol/kg, iv measured upto 24 hrs by LC-MS/MS analysis; type: ADME, organism-based; conditions: in vivo

Sequence of Coagulation factor X (P00742 41-179 limits assumed): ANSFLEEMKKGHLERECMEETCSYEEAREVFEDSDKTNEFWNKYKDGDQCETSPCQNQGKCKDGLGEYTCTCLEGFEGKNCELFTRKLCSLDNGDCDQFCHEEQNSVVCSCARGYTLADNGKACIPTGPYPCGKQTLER
Sequence of Coagulation factor X (P00742 235-488 limits assumed): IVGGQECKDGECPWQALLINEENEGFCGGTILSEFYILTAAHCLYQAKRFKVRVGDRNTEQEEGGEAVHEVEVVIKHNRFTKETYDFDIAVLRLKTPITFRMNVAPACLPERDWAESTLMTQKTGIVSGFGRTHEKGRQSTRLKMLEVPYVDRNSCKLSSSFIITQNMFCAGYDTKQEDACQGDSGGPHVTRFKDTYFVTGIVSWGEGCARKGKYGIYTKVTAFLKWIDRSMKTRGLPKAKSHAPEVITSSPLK

SMILES	Ki [1]	also measured
CCOC(=O)[C@]1(C)CCC[C@@]2(C)[C@@H]3CC[C@@]4(C)C[C@]3(CC[C@@H]21)C/C4=N\OC/C=C/c1ccc(C#N)cc1	13.3 µM	–
CCOC(=O)[C@]1(C)CCC[C@@]2(C)[C@@H]3CC[C@@]4(C)C[C@]3(CC[C@@H]21)C/C4=N\OC/C=C/c1ccc2[nH]c3ccccc3c2c1	26.4 µM	–
CCOC(=O)[C@]1(C)CCC[C@@]2(C)[C@@H]3CC[C@@]4(C)C[C@]3(CC[C@@H]21)C/C4=N/O	2.65 µM	TT [2]: 18.9 min
CCOC(=O)[C@]1(C)CCC[C@@]2(C)[C@@H]3CC[C@@]4(C)C[C@]3(CC[C@@H]21)C/C4=N\OC/C=C/c1ccc2ncccc2c1	4.18 µM	–
C=CCO/N=C1\C[C@]23CC[C@H]4[C@@](C)(CCC[C@@]4(C)C(=O)OCC)[C@@H]2CC[C@@]1(C)C3	8.61 µM	–
CCOC(=O)[C@]1(C)CCC[C@@]2(C)[C@@H]3CC[C@@]4(C)C[C@]3(CC[C@@H]21)C/C4=N\OC/C=C/c1ccc2c(c1)COC2=O	20.7 µM	–
CCOC(=O)[C@]1(C)CCC[C@@]2(C)[C@@H]3CC[C@@]4(C)C[C@]3(CC[C@@H]21)C/C4=N\OCc1c(F)c(F)c(F)c(F)c1F	0.321 µM	–
CCOC(=O)[C@]1(C)CCC[C@@]2(C)[C@@H]3CC[C@@]4(C)C[C@]3(CC[C@@H]21)C/C4=N\OC/C=C/c1ccc2nccnc2c1	3.6 µM	–
CCOC(=O)[C@]1(C)CCC[C@@]2(C)[C@@H]3CC[C@@]4(C)C[C@]3(CC[C@@H]21)C/C4=N\OC/C=C/c1ccc(F)cc1	6.17 µM	–
CCOC(=O)[C@]1(C)CCC[C@@]2(C)[C@@H]3CC[C@@]4(C)C[C@]3(CC[C@@H]21)C/C4=N\OC/C=C/c1ccc([N+](=O)[O-])cc1	2.64 µM	–
C[C@@]12CC[C@@H]3[C@@](CC[C@H]4[C@@]3(C)CCC[C@@]4(C)C(=O)O)(C[C@H]1O)C2	27.6 µM	TT [2]: 9.2 min
CCOC(=O)[C@]1(C)CCC[C@@]2(C)[C@@H]3CC[C@@]4(C)C[C@]3(CC[C@@H]21)C/C4=N\OC/C=C/c1ccc2oc3ccccc3c2c1	21 µM	–
CCOC(=O)[C@]1(C)CCC[C@@]2(C)[C@@H]3CC[C@@]4(C)C[C@]3(CC[C@@H]21)C/C4=N\OCc1csc2ccc(Cl)cc12	0.515 µM	–
CCOC(=O)[C@]1(C)CCC[C@@]2(C)[C@@H]3CC[C@@]4(C)C[C@]3(CC[C@@H]21)C/C4=N\OCc1ccc(OC(F)(F)F)cc1	1.02 µM	–
CCOC(=O)[C@]1(C)CCC[C@@]2(C)[C@@H]3CC[C@@]4(C)C[C@]3(CC[C@@H]21)C/C4=N\OC/C=C/c1ccccc1	10.7 µM	–
CCOC(=O)[C@]1(C)CCC[C@@]2(C)[C@@H]3CC[C@@]4(C)C[C@]3(CC[C@@H]21)C/C4=N\OC/C=C/c1ccc(-c2cnco2)cc1	1.93 µM	–
CCOC(=O)[C@]1(C)CCC[C@@]2(C)[C@@H]3CC[C@@]4(C)C[C@]3(CC[C@@H]21)C/C4=N\OCCN1CCOCC1	0.785 µM	–
C[C@@]12CC[C@@H]3[C@@](CC[C@H]4[C@@]3(C)CCC[C@@]4(C)C(=O)O)(CC1=O)C2 [ISOSTEVIOL]	13.4 µM	TT [2]: 17.2 min
CCOC(=O)[C@]1(C)CCC[C@@]2(C)[C@@H]3CC[C@@]4(C)C[C@]3(CC[C@@H]21)C/C4=N\OC/C=C/c1cc(F)c(F)c(F)c1	1.98 µM	–
CCOC(=O)[C@]1(C)CCC[C@@]2(C)[C@@H]3CC[C@@]4(C)C[C@]3(CC[C@@H]21)C/C4=N\OC/C=C/c1ccc2[nH]ccc2c1	4.67 µM	–
CCOC(=O)[C@]1(C)CCC[C@@]2(C)[C@@H]3CC[C@@]4(C)C[C@]3(CC[C@@H]21)C/C4=N\OC/C=C/c1ccc2sccc2c1	0.211 µM	–
CCOC(=O)[C@]1(C)CCC[C@@]2(C)[C@@H]3CC[C@@]4(C)C[C@]3(CC[C@@H]21)C/C4=N\OC/C=C/c1cccc2ccccc12	12.1 µM	–

SMILES	Ki [1]	also measured
CCOC(=O)[C@]1(C)CCC[C@@]2(C)[C@@H]3CC[C@@]4(C)C[C@]3(CC[C@@H]21)C/C4=N\OC/C=C/c1ccc(CN2CCOCC2)cc1	2.49 µM	–
CCOC(=O)c1ccc(CO/N=C2\C[C@]34CC[C@H]5[C@@](C)(CCC[C@@]5(C)C(=O)OCC)[C@@H]3CC[C@@]2(C)C4)o1	9.88 µM	–
CCOC(=O)[C@]1(C)CCC[C@@]2(C)[C@@H]3CC[C@@]4(C)C[C@]3(CC[C@@H]21)C/C4=N\OCc1ccc(Cl)c(F)c1	9.79 µM	–
CCOC(=O)[C@]1(C)CCC[C@@]2(C)[C@@H]3CC[C@@]4(C)C[C@]3(CC[C@@H]21)C/C4=N\OC/C=C/c1cccc(C(F)(F)F)c1	4.86 µM	–
CCOC(=O)[C@]1(C)CCC[C@@]2(C)[C@@H]3CC[C@@]4(C)C[C@]3(CC[C@@H]21)C/C4=N\OCC1OCCO1	1.61 µM	–
CCOC(=O)[C@]1(C)CCC[C@@]2(C)[C@@H]3CC[C@@]4(C)C[C@]3(CC[C@@H]21)C/C4=N\OCc1c(C)noc1C	2.88 µM	–
CCOC(=O)[C@]1(C)CCC[C@@]2(C)[C@@H]3CC[C@@]4(C)C[C@]3(CC[C@@H]21)C[C@H]4O	25.1 µM	TT [2]: 9.4 min
CCOC(=O)[C@]1(C)CCC[C@@]2(C)[C@@H]3CC[C@@]4(C)C[C@]3(CC[C@@H]21)C/C4=N\OCc1cc(C)nn1C	4.03 µM	–
C[C@@]12CC[C@@H]3[C@@](CC[C@H]4[C@@]3(C)CCC[C@@]4(C)C(=O)O)(C/C1=N/O)C2	7.99 µM	TT [2]: 12.9 min
O=C(NC[C@H]1CN(c2ccc(N3CCOCC3=O)cc2)C(=O)O1)c1ccc(Cl)s1 [RIVAROXABAN]	–	clearance [3]: 15 mL/min; MRT [4]: 5.4 h; AUC(0-inf) [5]: 6980 ng·h/mL; bioavailability [6]: 59.7%; Vd [7]: 8.1 L; half-life [8]: 4.4 h; PT [9]: 19.5 s; AUC(0-inf) [10]: 3510 ng·h/mL; Cmax [11]: 1580 ng/mL; TT [2]: 23.4 min; CL/F [12]: 25 mL/min; half-life [13]: 3.7 h; APTT [14]: 21.9 s; Vd [15]: 5.5 L; MRT [16]: 6.3 h
CCOC(=O)[C@]1(C)CCC[C@@]2(C)[C@@H]3CC[C@@]4(C)C[C@]3(CC[C@@H]21)CC4=O	4.58 µM	TT [2]: 14.9 min
CCOC(=O)[C@]1(C)CCC[C@@]2(C)[C@@H]3CC[C@@]4(C)C[C@]3(CC[C@@H]21)C/C4=N\OCc1ccc(C(F)(F)F)cc1	2.69 µM	–
CCOC(=O)[C@]1(C)CCC[C@@]2(C)[C@@H]3CC[C@@]4(C)C[C@]3(CC[C@@H]21)C/C4=N\OCc1cc(Cl)ccc1Cl	9.25 µM	–
CCOC(=O)[C@]1(C)CCC[C@@]2(C)[C@@H]3CC[C@@]4(C)C[C@]3(CC[C@@H]21)C/C4=N\OC1CCOCC1	1.81 µM	–
CCOC(=O)[C@]1(C)CCC[C@@]2(C)[C@@H]3CC[C@@]4(C)C[C@]3(CC[C@@H]21)C/C4=N\OCc1ccc(F)cc1	4.33 µM	–
CCOC(=O)[C@]1(C)CCC[C@@]2(C)[C@@H]3CC[C@@]4(C)C[C@]3(CC[C@@H]21)C/C4=N\OCc1cnc(Cl)s1	1.94 µM	–
COC(=O)[C@H](c1ccccc1Cl)N1CCc2sccc2C1 [CLOPIDOGREL]	–	TT [2]: 21 min
CCOC(=O)[C@]1(C)CCC[C@@]2(C)[C@@H]3CC[C@@]4(C)C[C@]3(CC[C@@H]21)C/C4=N\OC/C=C/c1c[nH]c(C(=O)OC)c1	1.91 µM	–
CCOC(=O)[C@]1(C)CCC[C@@]2(C)[C@@H]3CC[C@@]4(C)C[C@]3(CC[C@@H]21)C/C4=N\OC/C=C/c1ccc(C(C)=O)cc1	1.64 µM	–
CCOC(=O)[C@]1(C)CCC[C@@]2(C)[C@@H]3CC[C@@]4(C)C[C@]3(CC[C@@H]21)C/C4=N\OCc1cccc(Cl)c1	18.1 µM	–
CCOC(=O)[C@]1(C)CCC[C@@]2(C)[C@@H]3CC[C@@]4(C)C[C@]3(CC[C@@H]21)C/C4=N\OC/C=C/c1ccc2occc2c1	10.3 µM	–
CCOC(=O)[C@]1(C)CCC[C@@]2(C)[C@@H]3CC[C@@]4(C)C[C@]3(CC[C@@H]21)C/C4=N\OC/C=C/c1ccc(OC(F)(F)F)cc1	1.97 µM	–
